From PubChem BioAssay AID1963867 (Molecular Pharmacology Branch, DTP, NCI, 2024)
pIC50: −log10 of the molar value.

System: KRAS-mutant PDC tumor spheroid with HUVEC/MSC, viability
Assay: Anticancer human tumor 327498-153-R-J2-PDC patient-derived uterine carcinosarcoma cell line growth inhibition [KRAS2]
Details: for pIC50: curve of first compound; for viability, T/C: stronger effect = lower value
In short: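 KRAS-mutant tumor cells were grown as spheroids with HUVEC endothelial cells and human MSCs as stroma. Targeted agents were tested alone and with KRAS pathway inhibitors. Doses started at or near clinical Cmax, or 10 microM, descending half-log.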

[1] = second compound 0.1 µM, first compound 0.0316 µM
[2] = second compound 0.1 µM, first compound 0.1 µM
[3] = second compound 0.316 µM, first compound 0.0316 µM
[4] = second compound 0.316 µM, first compound 0.1 µM
[5] = second compound 1 µM, first compound 0.0316 µM
[6] = second compound 1 µM, first compound 0.1 µM
[7] = second compound 3.16 µM, first compound 0.0316 µM
[8] = second compound 3.16 µM, first compound 0.1 µM
[9] = second compound 10 µM, first compound 0.0316 µM
[10] = second compound 10 µM, first compound 0.1 µM
[11] = second compound 0.1 µM, first compound 0.316 µM
[12] = second compound 0.1 µM, first compound 1 µM
[13] = second compound 0.1 µM, first compound 3.16 µM
[14] = second compound 0.1 µM, first compound 10 µM
[15] = second compound 0.316 µM, first compound 0.316 µM
[16] = second compound 0.316 µM, first compound 1 µM
[17] = second compound 0.316 µM, first compound 3.16 µM
[18] = second compound 0.316 µM, first compound 10 µM
[19] = second compound 1 µM, first compound 0.316 µM
[20] = second compound 1 µM, first compound 1 µM
[21] = second compound 1 µM, first compound 3.16 µM
[22] = second compound 1 µM, first compound 10 µM
[23] = second compound 3.16 µM, first compound 0.316 µM
[24] = second compound 3.16 µM, first compound 1 µM
[25] = second compound 3.16 µM, first compound 3.16 µM
[26] = second compound 3.16 µM, first compound 10 µM
[27] = second compound 10 µM, first compound 0.316 µM
[28] = second compound 10 µM, first compound 1 µM
[29] = second compound 10 µM, first compound 3.16 µM
[30] = second compound 10 µM, first compound 10 µM
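Also: spheroids exposed to agents for seven days before reading.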
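For viability, T/C in this document: 100% = DMSO vehicle wells so lower means fewer viable cells.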

| Structure (SMILES) | pIC50 (second compound 0.1 µM) | pIC50 (second compound 0.316 µM) | pIC50 (second compound 1 µM) | pIC50 (second compound 3.16 µM) | pIC50 (second compound 10 µM) | viability, T/C [1] | viability, T/C [2] | viability, T/C [3] | viability, T/C [4] | viability, T/C [5] | viability, T/C [6] | viability, T/C [7] | viability, T/C [8] | viability, T/C [9] | viability, T/C [10] | viability, T/C [11] | viability, T/C [12] | viability, T/C [13] | viability, T/C [14] | viability, T/C [15] | further results |
| --- | --- | --- | --- | --- | --- | --- | --- | --- | --- | --- | --- | --- | --- | --- | --- | --- | --- | --- | --- | --- | --- |
| CN(C)C/C=C/C(=O)Nc1cc2c(Nc3ccc(F)c(Cl)c3)ncnc2cc1O[C@H]1CCOC1 + COc1cc2nc(C)nc(NC(C)c3cc(N)cc(C(F)(F)F)c3)c2cc1OC1CCOC1 | < 7.00 | < 7.00 | < 7.00 | 7.79 | < 7.00 | 69.5% | 68.1% | 59.9% | 62.4% | 83.8% | 84.8% | 49.9% | 49.5% | 53.7% | 54.6% | – | – | – | – | – | viability, T/C (second compound 0.1 µM, first compound 0.000316 µM): 88.6%; viability, T/C (second compound 0.1 µM, first compound 0.001 µM): 84%; viability, T/C (second compound 0.1 µM, first compound 0.00316 µM): 75.2%; viability, T/C (second compound 0.1 µM, first compound 0.01 µM): 76.7%; viability, T/C (second compound 0.316 µM, first compound 0.000316 µM): 72.5%; viability, T/C (second compound 0.316 µM, first compound 0.001 µM): 76%; viability, T/C (second compound 0.316 µM, first compound 0.00316 µM): 64%; viability, T/C (second compound 0.316 µM, first compound 0.01 µM): 67.3%; viability, T/C (second compound 1 µM, first compound 0.000316 µM): 90.8%; viability, T/C (second compound 1 µM, first compound 0.001 µM): 85.1%; viability, T/C (second compound 1 µM, first compound 0.00316 µM): 88.1%; viability, T/C (second compound 1 µM, first compound 0.01 µM): 86%; viability, T/C (second compound 3.16 µM, first compound 0.000316 µM): 60.9%; viability, T/C (second compound 3.16 µM, first compound 0.001 µM): 57.1%; viability, T/C (second compound 3.16 µM, first compound 0.00316 µM): 52.7%; viability, T/C (second compound 3.16 µM, first compound 0.01 µM): 48.2%; viability, T/C (second compound 10 µM, first compound 0.000316 µM): 58.5%; viability, T/C (second compound 10 µM, first compound 0.001 µM): 56.7%; viability, T/C (second compound 10 µM, first compound 0.00316 µM): 49.8%; viability, T/C (second compound 10 µM, first compound 0.01 µM): 49.3% |
| COC(=O)c1ccc2c(C(=Nc3ccc(N(C)C(=O)CN4CCN(C)CC4)cc3)c3ccccc3)c(O)[nH]c2c1 + COc1cc2nc(C)nc(NC(C)c3cc(N)cc(C(F)(F)F)c3)c2cc1OC1CCOC1 | 5.67 | 6.31 | 6.19 | 6.23 | 6.55 | 94.6% | 77.2% | 73% | 65.1% | 62% | 59% | 69.5% | 69.6% | 54.2% | 58.9% | 72.2% | 83.7% | 33.9% | 34.5% | 57% | viability, T/C [16]: 40.4%; viability, T/C [17]: 29%; viability, T/C [18]: 24.8%; viability, T/C [19]: 64.3%; viability, T/C [20]: 42.9%; viability, T/C [21]: 25.5%; viability, T/C [22]: 20.4%; viability, T/C [23]: 60.9%; viability, T/C [24]: 39.3%; viability, T/C [25]: 19.9%; viability, T/C [26]: 0.17%; viability, T/C [27]: 47.1%; viability, T/C [28]: 27.2%; viability, T/C [29]: 2.2%; viability, T/C [30]: 0.22% |
| O=C(c1cc(Cc2n[nH]c(=O)c3ccccc23)ccc1F)N1CCN(C(=O)C2CC2)CC1 + COc1cc2nc(C)nc(NC(C)c3cc(N)cc(C(F)(F)F)c3)c2cc1OC1CCOC1 | 5.65 | 5.76 | 5.61 | 5.76 | 6.14 | 84.2% | 107% | 77.2% | 79.2% | 109% | 104% | 78.4% | 77.3% | 99.8% | 61% | 89.7% | 78.7% | 37.3% | 20.7% | 81.9% | viability, T/C [16]: 68.5%; viability, T/C [17]: 30.3%; viability, T/C [18]: 15.9%; viability, T/C [19]: 102%; viability, T/C [20]: 94.6%; viability, T/C [21]: 37.8%; viability, T/C [22]: 18.7%; viability, T/C [23]: 76.1%; viability, T/C [24]: 66.3%; viability, T/C [25]: 32.5%; viability, T/C [26]: 18.5%; viability, T/C [27]: 63%; viability, T/C [28]: 56.9%; viability, T/C [29]: 25.3%; viability, T/C [30]: 14.7% |
